Laboratory results as given in patent publication US20230391817A1, “5ALPHA-HYDROXY-6BETA-[2-(1-H-IMIDAZOL-4-YL)-ETHYLAMINO]-CHOLESTAN-3BETA-OL ANALOGUES AND PHARMACEUTICAL COMPOSITIONS COMPRISING SAME FOR USE IN THE TREATMENT OF CANCER” (priority 2020, published 2023).

What was measured:
[1] = test system: BT-474 human mammary tumor cells; assay: Cell viability of BT-474 cells, MTT; assay type: cell-based; details: for Mean LogIC50 (±SEM) / IC50: BT-474, MTT, 48 h; for Mean LogIC50 (±SEM): log of IC50 in μM; for IC50: Homo sapiens
Protocol: The cell viability is measured by three different methods. For the first method, MTT labeling is performed at 48 hours. This test is based on the use of the tetrazolium salt MTT (3-(4,5-dimethylthiazol-2-yl)-2,5-diphenyltetrazolium bromide). Tetrazolium is reduced by mitochondrial succinate dehydrogenase in active live cells to formazan, a purple colored precipitate. The amount of precipitate formed is proportional to the amount of live cells but also to the metabolic activity of each cell. Thus, a simple determination of the optical density at 550 nm by spectroscopy makes it possible to determine the relative amount of live and metabolically active cells. After 48 hours, the medium is aspirated, and the cells are incubated with MTT (0.5 mg/ml in culture medium) for about 3 hours. The MTT solution is aspirated and the purple crystals are dissolved in dimethyl sulfoxide (DMSO). The OD (optical density) is measured at 550 nm. The percentage of viability is then determined in each well against the CTL and the IC50 (concentration at which 50% of cells remain alive) is determined for each molecule with the Prism software using a nonlinear regression curve (log(inhibitor) vs. Response).
(§1) Cell viability tests were also performed on BT-474 human mammary tumor cells (characterized as triple positive HER2+, ER+, PR+). The BT-474 cells were in a cell culture medium identical to the previous example and seeded in 24-well plates at 70 000 cells per well for cell viability determination using trypan blue, or in 96-well plates at 13 000 cells per well for cell viability determination using the MTT or LDH assay. After 96 hours (h) of culture under normal conditions, i.e. in an incubator at 37° C. with […], BT-474 cells were treated for 48 h with DX101, DX103, DX105, DX111, DX123 and DX127 at 100 nM, 1 μM, 2.5 μM and 10 μM. A control is also performed using the protocol described previously without treatment with DX101, DX103, DX105, DX111, DX123 and DX127.
(§2) After a 10-minute trypsin digestion at 37° C., the cell survival was also quantified by means of a trypan blue test with automatic counting using the Biorad TC20 machine (TC20™ Automated Cell Counter). The trypan blue test is based on the integrity of cell membranes, which is disrupted in the dead cells. Trypan blue stains dead cells blue. The Biorad TC20 cell counter counts the proportion of blue and non-blue cells, and reports the percentage of cells. The percentage of viability is then determined in each well relative to the untreated cells and the IC50 is determined as explained in the preceding example. Also, the percentage viability of the BT-474 cells was determined using the MTT and LDH assay, performed as described in the preceding example.

4T1 tumors = assay: Tumor growth and survival in vivo, subcutaneous 4T1 tumors in Balb/c mice; details: 40 mg/kg, gavage, daily; for Inhibition of tumor growth at 7 days: Balb/c mice with 4T1 tumors
Protocol: All the animal procedures were conducted according to our institutional guidelines after approval by the ethics committee. The 4T1 cells were cultured as previously, dissociated in trypsin, washed twice with cold PBS and resuspended in 1.5 million/ml PBS. 4T1 tumors were obtained by subcutaneous transplantation of 0.150 million cells in 100 μL into the flank of female Balb/c mice (9 weeks old, […]). When the tumors reached a volume of 50-100 mm^3, the mice were gavaged with 40 mg/kg of DX101 or 40 mg/kg of DX111 or the control vehicle (water). Treatment was performed daily until the end of the experiment (tumor volume >1000 mm^3). Tumor volume was determined daily using a caliper and calculated using the formula: ½×(Length*Width^2). The percentage of tumor growth inhibition was determined using the following formula: 100×(1-(Tumor volume, day 7/tumor volume day 0)DX111)/(1-(Tumor volume, day 7/tumor volume day 0)vehicle).
The Kaplan-Meier method was used to compare animal survival.

[2] = test system: BT-474 human mammary tumor cells; assay: Cell viability of BT-474 cells, LDH; assay type: cell-based; details: BT-474, LDH, 48 h; for Mean LogIC50 (±SEM): log of IC50 in μM; for IC50: Homo sapiens
Protocol: For the second method, the percentage of viability is determined by assaying the activity of the enzyme LDH (lactate dehydrogenase) in cell supernatants using the non radioactive cytotoxicity assay kit (Promega). LDH is an enzyme released in the supernatant of dead cells. The higher the LDH activity in the supernatant, the greater the cell death. In this enzyme assay, the LDH released converts a violet tetrazolium salt to a red colored formazan, absorbing at 490 nm. The intensity of the red color is proportional to the number of dead cells. After 48 h of treatment, the supernatants are transferred to a new 96-well plate and incubated for 30 minutes in the presence of substrate mix at room temperature. The reaction is stopped with stop solution reagent and the absorbance is determined at 490 nm. The percentage of cell death is determined here using a 100% maximum LDH activity control (made from untreated cells incubated in the presence of lysis solution for 45 minutes at 37° C. just prior to addition of the substrate mix), and the cell viability in each well is then deduced from this percentage. The IC50 is then determined as explained in the preceding paragraph.
as §1, §2

[3] = target: T1, Cholesterol Epoxide Hydrolase (ChEH) (Homo sapiens, UniProt Q15125+Q9UBM7); assay: Cholesterol Epoxide Hydrolase (ChEH) activity in MCF-7 cells, [14C]5,6α-EC metabolism by TLC; assay type: cell-based; details: 1 μM, 24 h, [14C]5,6α-EC 0.6 μM
T1 construct: endogenous in cells; host or cells: MCF-7
Description: The compounds 5,6α-epoxycholesterol (5,6α-EC) and 5,6p-epoxycholesterol (5,6p-EC) are oxysterols involved in the anticancer pharmacology of tamoxifen, a widely used antitumor drug. Both are metabolized to cholestane-3β,5α,6β-triol (CT) by the enzyme cholesterol-5,6-epoxide hydrolase (ChEH), and CT is metabolized by the enzyme HSD11B2 (11β-hydroxysteroid dehydrogenase 2) to 6-oxocholestane-3β,5α-diol (OCDO), a tumor-promoting oncosterone.
MCF-7 cells are in a cell culture medium identical to that of Example 5 and are seeded in 6-well plates at 150 000 cells per well with three wells per treatment condition. […] Tamoxifen is used as a positive control for 3α-fluoro-5α-hydroxy-6β-[2-(1H-imidazol-4-yl)ethylamino]cholestane and 5α-hydroxy-6β-[2-(1H-imidazol-4-yl)ethylamino]cholestan-3β-ol (1 μM for all molecules).
After 24 hours of treatment, the media are collected and lipid extracts are prepared from the cell pellets by extraction with 100 μL of chloroform, 400 μL of methanol, and 300 μL of water.
The lipid extracts are analyzed by thin layer chromatography (TLC) using ethyl acetate (EtOAc) as eluent. The analysis is performed with a plate reader and then by autoradiography.

T1 sequence (Q15125 whole entry): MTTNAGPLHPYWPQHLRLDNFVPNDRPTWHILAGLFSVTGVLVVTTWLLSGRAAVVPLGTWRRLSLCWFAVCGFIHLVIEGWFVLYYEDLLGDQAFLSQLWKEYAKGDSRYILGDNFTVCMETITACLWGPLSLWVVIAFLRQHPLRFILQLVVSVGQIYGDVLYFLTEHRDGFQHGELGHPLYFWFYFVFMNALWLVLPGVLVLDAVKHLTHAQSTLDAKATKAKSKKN
T1 sequence (Q9UBM7 whole entry): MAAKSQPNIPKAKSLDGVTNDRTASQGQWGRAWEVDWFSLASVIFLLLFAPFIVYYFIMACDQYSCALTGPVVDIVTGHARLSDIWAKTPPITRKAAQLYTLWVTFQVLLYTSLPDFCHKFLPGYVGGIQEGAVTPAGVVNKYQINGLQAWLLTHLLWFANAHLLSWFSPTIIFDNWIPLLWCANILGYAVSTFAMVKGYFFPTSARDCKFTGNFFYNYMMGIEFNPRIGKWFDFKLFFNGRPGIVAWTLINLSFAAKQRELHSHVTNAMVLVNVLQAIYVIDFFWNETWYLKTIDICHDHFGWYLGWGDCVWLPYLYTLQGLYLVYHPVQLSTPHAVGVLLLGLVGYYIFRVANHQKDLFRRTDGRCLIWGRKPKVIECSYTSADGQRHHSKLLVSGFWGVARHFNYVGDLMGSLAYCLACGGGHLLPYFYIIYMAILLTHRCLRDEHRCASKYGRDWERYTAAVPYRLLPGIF

Row | SMILES | Mean LogIC50 (±SEM) [1] | IC50 [1] | median survival (4T1 tumors) | survival after 15 days of treatment (4T1 tumors) | Inhibition of tumor growth at 7 days (4T1 tumors) | Mean LogIC50 (±SEM) [2] | IC50 [2] | activity compared with DX101 ([1]; BT-474, Tables 2a, 2b and 2c (MTT, LDH, Trypan Blue)) | inhibition of ChEH activity [3] | effect on tumor growth reduction compared with DX101 (4T1 tumors; p<0.01)
1 | CC(C)CCC[C@@H](C)[C@H]1CC[C@H]2[C@@H]3C[C@@H](NCCc4c[nH]cn4)[C@@]4(O)C[C@@H](O)CC[C@]4(C)[C@H]3CC[C@]12C [DX101, 5α-hydroxy-6β-[2-(1H-imidazol-4-yl)ethylamino]cholestan-3β-ol, reference compound] | 0.88 ± 0.03 | 7.53 µM | 9 days | 0% | 48% | 1.03 ± 0.06 | 10.6 µM | – | – | –
2 | CC(C)CCC[C@@H](C)[C@H]1CC[C@H]2[C@@H]3C[C@@H](NCCc4c[nH]cn4)[C@@]4(O)C[C@@H](F)CC[C@]4(C)[C@H]3CC[C@]12C [DX111, 3β-fluoro-5α-hydroxy-6β-[2-(1H-imidazol-4-yl)ethylamino]cholestane] | 0.95 ± 0.10 | 8.94 µM | 10 days | 25% | 67% | 0.89 ± 0.04 | 7.82 µM | similar | almost total inhibition | superior effect
